pIC50: −log10 of the molar value.
Target: PKBα (Homo sapiens, UniProt P31749)
Test: PKB kinase assay (P33-labeled ATP, peptide substrate, filter plate)
Assay type: biochemical
Conditions: PKBα enzyme (full length or kinase domain with pleckstrin domain deleted)
From the text: The kinase assay for evaluating PKB activity comprises active PKB enzymes, a PKB specific substrate, and P^33-labeled ATP. […] The phosphorylated substrate was captured by a phosphocellulose membrane filter plate (MLLIPORE) and measured by a Wallac Microbeta liquid scintillation counter (Perkin Elmer).

Sequence of PKBα (P31749 118-480 limits assumed): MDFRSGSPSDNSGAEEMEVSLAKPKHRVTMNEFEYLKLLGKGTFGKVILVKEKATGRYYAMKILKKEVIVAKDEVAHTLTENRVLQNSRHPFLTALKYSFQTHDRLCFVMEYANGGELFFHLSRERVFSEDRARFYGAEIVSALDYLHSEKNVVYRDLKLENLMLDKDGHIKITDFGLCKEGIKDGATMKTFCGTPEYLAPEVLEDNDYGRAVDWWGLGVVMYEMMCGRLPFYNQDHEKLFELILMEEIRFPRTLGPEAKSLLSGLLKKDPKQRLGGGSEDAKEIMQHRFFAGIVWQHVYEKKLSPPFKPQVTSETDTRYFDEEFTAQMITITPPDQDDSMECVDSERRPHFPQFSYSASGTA

pIC50 | SMILES
5.00 to 6.00 | N[C@H](CNc1ncc(-c2ccc3c(c2)CC(=O)N3)s1)Cc1ccc(OCCCO)cc1 [Example 95, 5-(2-((S)-2-Amino-3-(4-(3-hydroxypropoxy)phenyl)propylamino)-thiazol-5-yl)indolin-2-one]
6.00 to 7.30 | N[C@H](CNc1ncc(-c2nc3ccncc3s2)s1)Cc1ccc(Cl)c(Cl)c1 [Example 97, N—((S)-2-Amino-3-(3,4-dichlorophenyl)propyl)-5-(thiazolo[5,4-c]pyridin-2-yl)thiazol-2-amine]
> 7.30 | C[C@@H](c1ccc(C(F)(F)F)nc1)[C@H](N)CNc1ncc(-c2ccc3c(c2)CC(=O)N3)s1 [Example 233, 5-(2-((2S,3S)-2-amino-3-(6-(trifluoromethyl)pyridin-3-yl)butylamino)thiazol-5-yl)indolin-2-one]
5.00 to 6.00 | N[C@H](CNc1nc(C(=O)NCCO)c(-c2ccc3cnccc3c2)s1)Cc1ccc(C(F)(F)F)cc1 [Example 119, 2-((S)-2-Amino-3-(4-(trifluoromethyl)phenyl)-propylamino)-N-(2-hydroxyethyl)-5-(isoquinolin-6-yl)thiazole-4-carboxamide]
> 7.30 | COC(=O)c1nc(NC[C@@H](N)Cc2ccc(C(F)(F)F)cc2)sc1-c1ccc2[nH]c(=O)oc2c1 [Example 124, Methyl 2-((S)-2-Amino-3-(4-(trifluoromethyl)phenyl)propylamino)-5-(2-oxo-2,3-dihydrobenzo[d]oxazol-6-yl)thiazole-4-carboxylate]
6.00 to 7.30 | Cn1c(=O)[nH]c2ccc(-c3cnc(NC[C@@H](N)Cc4ccc5ccccc5c4)s3)cc21 [Example 203, 6-(2-((S)-2-amino-3-(naphthalen-2-yl)propylamino)thiazol-5-yl)-1-methyl-1H-benzo[d]imidazol-2(3H)-one]
5.00 to 6.00 | N[C@H](CNc1nc(C2CCCO2)c(-c2ccc3c(c2)CC(=O)N3)s1)Cc1ccc(Cl)cc1 (stereo partly drawn) [Example 197, 5-(2-((S)-2-Amino-3-(4-chlorophenyl)propylamino)-4-(tetrahydrofuran-2-yl)thiazol-5-yl)indolin-2-one]
> 7.30 | N[C@H](CNc1ncc(-c2ccc3c(c2)CC(=O)N3)s1)[C@@H](CO)c1ccc(C(F)(F)F)cc1 [Example 158, 5-(2-((2S,3S)-2-amino-4-hydroxy-3-(4-(trifluoromethyl)phenyl)butylamino)thiazol-5-yl)indolin-2-one]
> 7.30 | CC#Cc1nc(NC[C@@H](N)Cc2ccc(C(F)(F)F)cc2)sc1-c1ccc2cnccc2c1 [Example 143, N—((S)-2-amino-3-(4-(trifluoromethyl)phenyl)propyl)-5-(isoquinolin-6-yl)-4-(prop-1-ynyl)thiazol-2-amine]
6.00 to 7.30 | CC(C)(C)C(=O)OC[C@@H](c1ccc(C(F)(F)F)cc1)[C@H](N)CNc1ncc(-c2ccc3c(c2)CC(=O)N3)s1 [Example 242, (2S,3S)-3-amino-4-(5-(2-oxoindolin-5-yl)thiazol-2-ylamino)-2-(4-(trifluoromethyl)phenyl)butyl pivalate]
6.00 to 7.30 | COc1ccc(C[C@H](N)CNc2ncc(-c3ccc4c(c3)CC(=O)N4)s2)cc1 [Example 67, 5-(2-((S)-2-amino-3-(4-methoxyphenyl)propylamino)thiazol-5-yl)indolin-2-one]
5.00 to 6.00 | N[C@H](CNc1ncc(-c2ccc3c(c2)CCC(=O)N3)s1)Cc1ccc(C(F)(F)F)cc1 [Example 36, 6-(2-((S)-2-amino-3-(4-(trifluoromethyl)phenyl)propylamino)thiazol-5-yl)-3,4-dihydroquinolin-2(1H)-one]
< 5.00 | COCc1nc(N(C[C@H](Cc2ccc(C(F)(F)F)cc2)NCCN2CCOCC2)C(C)=O)sc1-c1nc2ccncc2s1 [Example 33, N-(4-(methoxymethyl)-5-(thiazolo[5,4-c]pyridin-2-yl)thiazol-2-yl)-N—((S)-2-(2-morpholinoethylamino)-3-(4-(trifluoromethyl)phenyl)propyl)acetamide]
6.00 to 7.30 | N[C@H](CNc1ncc(-c2ccc3c(c2)CC(=O)N3)s1)Cc1cccc(C(F)(F)F)c1 [Example 44, 5-(2-((S)-2-amino-3-(3-(trifluoromethyl)phenyl)propylamino)thiazol-5-yl)indolin-2-one]
5.00 to 6.00 | C[C@@H](c1ccccc1)[C@H](N)CNc1ncc(-c2ccc3[nH]c(=O)oc3c2)s1 [Example 88, 6-(2-((2S,3S)-2-Amino-3-phenylbutylamino)thiazol-5-yl)benzo[d]oxazol-2(3H)-one]
> 7.30 | COc1cc(C[C@H](N)CNc2ncc(-c3ccc4[nH]c(=O)n(C)c4c3)s2)cnc1C(F)(F)F [Example 175, 6-(2-((S)-2-amino-3-(5-methoxy-6-(trifluoromethyl)pyridin-3-yl)propylamino)thiazol-5-yl)-1-methyl-1H-benzo[d]imidazol-2(3H)-one]
5.00 to 6.00 | N[C@H](CNc1ncc(-c2ccc3c(c2)CC(=O)N3)s1)Cc1cc(F)cc(F)c1 [Example 163, 5-(2-((S)-2-amino-3-(3,5-difluorophenyl)propylamino)thiazol-5-yl)indolin-2-one]
6.00 to 7.30 | CN(C)C(=O)c1nc(NC[C@@H](N)Cc2ccc(C(F)(F)F)cc2)sc1-c1ccc2cnccc2c1 [Example 194, 2-((S)-2-amino-3-(4-(trifluoromethyl)phenyl)propylamino)-5-(isoquinolin-6-yl)-N,N-dimethylthiazole-4-carboxamide]
> 7.30 | C[C@@H](c1ccc(C(F)(F)F)cc1)[C@H](N)CNc1ncc(-c2ccc3cnccc3c2)s1 [Example 110, N-((2S,3S)-2-Amino-3-(4-(trifluoromethyl)phenyl)butyl)-5-(isoquinolin-6-yl)thiazol-2-amine]
5.00 to 6.00 | Cn1c(=O)[nH]c2ccc(-c3sc(NC[C@@H](N)Cc4ccc(C(F)(F)F)cc4)nc3C#N)cc21 [Example 62, 2-((S)-2-amino-3-(4-(trifluoromethyl)phenyl)propylamino)-5-(3-methyl-2-oxo-2,3-dihydro-1H-benzo[d]imidazol-5-yl)thiazole-4-carbonitrile]
6.00 to 7.30 | COC(=O)c1nc(NC[C@@H](N)Cc2ccc(C(F)(F)F)cc2)sc1-c1ccc2c(c1)CC(=O)N2 [Example 122, Methyl 2-((S)-2-amino-3-(4-(trifluoromethyl)phenyl)propylamino)-5-(2-oxoindolin-5-yl)thiazole-4-carboxylate]
5.00 to 6.00 | Nc1n[nH]c2cc(-c3cnc(NC[C@@H](N)Cc4ccc(C(F)(F)F)cc4)s3)ccc12 [Example 52, 6-(2-((S)-2-amino-3-(4-(trifluoromethyl)phenyl)propylamino)thiazol-5-yl)-1H-indazol-3-amine]
> 7.30 | COCc1nc(NC[C@@H](N)Cc2ccc(Cl)cc2)sc1-c1nc2ccncc2s1 [Example 19, N—((S)-2-amino-3-(4-chlorophenyl)propyl)-4-(methoxymethyl)-5-(thiazolo[5,4-c]pyridin-2-yl)thiazol-2-amine]
5.00 to 6.00 | N[C@H](CNc1nc(-c2ccccn2)c(-c2nc3ccncc3s2)s1)Cc1ccc(C(F)(F)F)cc1 [Example 60, N—((S)-2-amino-3-(4-(trifluoromethyl)phenyl)propyl)-4-(pyridin-2-yl)-5-(thiazolo[5,4-c]pyridin-2-yl)thiazol-2-amine]
6.00 to 7.30 | N[C@H](CNc1nc(C#CC2(O)CCC2)c(-c2ccc3cnccc3c2)s1)Cc1ccc(C(F)(F)F)cc1 [Example 142, 1-(2-(2-((S)-2-amino-3-(4-(trifluoromethyl)phenyl)propylamino)-5-(isoquinolin-6-yl)thiazol-4-yl)ethynyl)cyclobutanol]
